Data taken from patent US20250214969A1, “PROTEIN DEGRADERS AND USES THEREOF” (Kymera Therapeutics, Inc., priority 2022, published 2025).

Assays:
[1] = biological target: T1, truncated His-MBP-Tev-KLHDC2 (residues 1-363) (Homo sapiens, UniProt Q9Y2U9); test: KLHDC2 FP competition binding assay; conditions: 15 nM KLHDC2 (residues 1-363), 10 nM fluorescein-labeled diglycine peptide probe, read-out: KLHDC2 binding Human FP: average external IC50
T1 construct: truncated His -MBP-Tev-KLHDC2 (residues 1-363) purified from E. coli; made in house; host or cells: E. coli
T1 sequence (Q9Y2U9 1-363): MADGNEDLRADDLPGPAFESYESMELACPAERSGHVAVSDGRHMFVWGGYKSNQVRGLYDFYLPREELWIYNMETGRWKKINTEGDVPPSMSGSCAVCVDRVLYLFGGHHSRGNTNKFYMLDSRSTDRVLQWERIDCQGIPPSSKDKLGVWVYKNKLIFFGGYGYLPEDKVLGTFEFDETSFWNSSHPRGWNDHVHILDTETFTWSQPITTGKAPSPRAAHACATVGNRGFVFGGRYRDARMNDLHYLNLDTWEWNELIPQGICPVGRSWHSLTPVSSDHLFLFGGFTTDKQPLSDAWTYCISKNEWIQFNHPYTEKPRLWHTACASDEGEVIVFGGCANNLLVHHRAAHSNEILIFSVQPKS

[2] = biological target: T1, truncated His-MBP-Tev-KLHDC2 (residues 1-363); test: KLHDC2 HTRF binding assay; conditions: 1 nM KLHDC2 (residues 1-363), fluorescein-labeled diglycine peptide probe

| Compound | IC50 [1] [µM] | IC50 [2] [µM] |
| --- | --- | --- |
| O=C(O)Cn1cc(NC(=O)C2CCCc3cc(O)ccc32)ccc1=O (stereo not drawn) [I-245] | > 5 | > 5 |
| CC(C)=Cc1cccc(-c2ccc(=O)n(CC(=O)O)c2)c1 [I-331] | > 5 | > 5 |
| Cc1ccccc1-c1cccc(C(=O)Nc2ccc(=O)n(CC(=O)O)c2)c1 [I-289] | > 5 | > 5 |
| Cc1ccc(-c2cccc(C(=O)Nc3ccc(=O)n(CC(=O)O)c3)c2)cc1 [I-275] | > 5 | 0.5 to 5 |
| CC1(C)CCc2c(C(=O)Nc3ccc(=O)n(CC(=O)O)c3)csc2C1 [I-234] | > 5 | 0.5 to 5 |
| O=C(O)Cn1cc(NC(=O)[C@@H]2CCCN(c3cccnc3)C2)ccc1=O [I-92] | 0.5 to 5 | 0.05 to 0.5 |
| CCc1cncc(N2CCC[C@H](C(=O)Nc3ccc(F)c(CC(=O)O)c3)C2)c1 [I-23] | 0.05 to 0.5 | < 0.05 |
| O=C(O)Cn1cc(NC(=O)[C@@H]2CN(c3cccnc3)Cc3ccccc32)ccc1=O [I-34] | > 5 | > 5 |
| Cc1cccc(-c2cccn(CC(=O)O)c2=O)c1 [I-391] | > 5 | > 5 |
| CNC(=O)c1ccc(-c2cccc(C(=O)Nc3ccc(=O)n(CC(=O)O)c3)c2)cc1 [I-193] | > 5 | > 5 |
| COc1cccc(OCC(=O)Nc2ccc(=O)n(CC(=O)O)c2)c1 [I-261] | > 5 | > 5 |
| COc1cncc(N2CCC[C@H](C(=O)Nc3ccc(F)c(CC(=O)O)c3)C2)c1 [I-24] | 0.05 to 0.5 | 0.05 to 0.5 |
| Cc1sc2c(c1C)C(c1ccc(Cl)cc1)=N[C@@H](CC(=O)NCCCCCCc1ccncc1-c1cccc(C(=O)Nc3ccc(=O)n(CC(=O)O)c3)c1)c1nnc(C)n1-2 [I-475] | < 0.05 | 0.05 to 0.5 |
| O=C(O)Cn1cc(C(=O)Nc2ccccc2)ccc1=O [I-374] | > 5 | > 5 |
| O=C(O)Cn1cc(NC(=O)[C@H]2CCCN(c3cncc([N+](=O)[O-])c3)C2)ccc1=O [I-4] | < 0.05 | < 0.05 |
| Cc1ccc(C)c(-c2ccc(=O)n(CC(=O)O)c2)c1 [I-419] | > 5 | > 5 |
| O=C(O)Cn1cc(/C=C/c2ccccc2)ccc1=O [I-326] | > 5 | > 5 |
| Cc1cc(C)c(-c2ccc(=O)n(CC(=O)O)c2)cc1C [I-356] | > 5 | > 5 |
| Cc1cc(-c2ccc(=O)n(CC(=O)O)c2)ccc1F [I-376] | > 5 | > 5 |
| O=C(O)Cn1cc(N2CC[C@]3(CCN(c4cccnc4)C3)C2=O)ccc1=O [I-1] | > 5 | > 5 |
| O=C(O)Cn1cc(NC(=O)c2cccc3[nH]ccc23)ccc1=O [I-139] | > 5 | 0.5 to 5 |
| O=C(O)CC(C(=O)n1ccc2ccccc21)c1ccc(=O)n(CC(=O)O)c1 (stereo not drawn) [I-184] | > 5 | > 5 |
| O=C(O)Cn1cc(NC(=O)c2ccc(-c3ccccc3)c(F)c2)ccc1=O [I-311] | > 5 | 0.5 to 5 |

| Compound | IC50 [1] [µM] | IC50 [2] [µM] |
| --- | --- | --- |
| O=C(O)C1CCOc2ccc(Cl)cc21 (stereo not drawn) [I-215] | > 5 | > 5 |
| COc1cc(-c2ccc(C)cc2)ccc1C(=O)Nc1ccc(=O)n(CC(=O)O)c1 [I-135] | > 5 | 0.5 to 5 |
| Cc1cc(O)ccc1-c1ccc(=O)n(CC(=O)O)c1 [I-346] | > 5 | > 5 |
| Cc1cc(=O)n(CC(=O)O)cc1NC(=O)c1cccc(-c2cccnc2)c1 [I-96] | 0.5 to 5 | 0.05 to 0.5 |
| O=C(O)Cn1cc(NC(=O)COc2ccccn2)ccc1=O [I-264] | > 5 | > 5 |
| O=C(O)Cn1cc(N2CC[C@]3(CCCN(c4cccnc4)C3)C2=O)ccc1=O [I-15] | > 5 | 0.05 to 0.5 |
| COc1ccc(-c2ccccc2C)cc1CC(=O)O [I-352] | > 5 | > 5 |
| O=C(O)Cn1cc(NC(=O)COc2cccc(Cl)c2)ccc1=O [I-265] | > 5 | > 5 |
| O=C(O)Cn1cc(NC(=O)COc2cccc(C(F)(F)F)c2)ccc1=O [I-252] | > 5 | > 5 |
| NC(=O)Cn1cc(NC(=O)c2cccc(-c3cncc4ccccc34)c2)ccc1=O [I-122] | > 5 | > 5 |
| O=C(O)Cn1cc(-c2cc(F)cc(F)c2)ccc1=O [I-371] | > 5 | > 5 |
| NCCCCCCc1cccc2c(-c3cccc(C(=O)Nc4ccc(=O)n(CC(=O)O)c4)c3)cncc12 [I-110] | > 5 | 0.05 to 0.5 |
| CN(C(=O)c1ccccc1)c1ccc(=O)n(CC(=O)O)c1 [I-286] | > 5 | > 5 |
| CC(C)(C)OC(=O)NCCCCCCc1ccc(C(=O)Nc2ccc(=O)n(CC(=O)O)c2)cc1-c1cccnc1 [I-146] | 0.05 to 0.5 | 0.05 to 0.5 |
| CNc1cncc(N2CCC[C@H](C(=O)Nc3ccc(=O)n(CC(=O)O)c3)C2)c1 [I-40] | 0.05 to 0.5 | < 0.05 |
| O=C(O)Cn1cc(Nc2ncc(-c3cccnc3)c3ccccc23)ccc1=O [I-56] | > 5 | 0.5 to 5 |
| Cn1cc(N2CC(C(=O)O)CC2=O)cn1 (stereo not drawn) [I-226] | > 5 | > 5 |
| O=C(O)Cn1cc(NC(=O)c2cc(-c3ccccc3)ccn2)ccc1=O [I-267] | > 5 | > 5 |
| COc1c(F)cc(-c2ccc(=O)n(CC(=O)O)c2)cc1F [I-347] | > 5 | > 5 |
| O=C(O)Cn1cc(NC(=O)c2cccc(-c3cncnc3)c2)ccc1=O [I-201] | 0.5 to 5 | 0.5 to 5 |
| O=C(O)Cn1cc(NC(=O)c2ccc3nc(Cl)ccc3c2)ccc1=O [I-176] | > 5 | > 5 |
| CC(C)Cn1ncc2c(C(=O)Nc3ccc(=O)n(CC(=O)O)c3)cccc21 [I-136] | > 5 | 0.5 to 5 |
| O=C(O)Cn1cc(NC(=O)c2cccc(C3CCC3)c2)ccc1=O [I-240] | > 5 | > 5 |

Further lines, results first:

| IC50 [1] [µM] | IC50 [2] [µM] | Compound |
| --- | --- | --- |
| > 5 | > 5 | O=C(O)Cn1cc(NC(=O)[C@@H]2CCN(c3cccnc3)C2)ccc1=O [I-49] |
| > 5 | > 5 | O=C(O)Cn1cc(NC(=O)c2cccc(Br)c2)ccc1=O [I-268] |
| > 5 | 0.5 to 5 | O=C(O)Cn1cc(NC(=O)[C@H]2CN(c3cccnc3)Cc3ccccc32)ccc1=O [I-32] |
| > 5 | > 5 | Cc1ccccc1-c1ccc(O)c(CC(=O)O)c1 [I-336] |
| > 5 | > 5 | CN1CCN(Cc2cccc(-c3ccc(=O)n(CC(=O)O)c3)c2)CC1 [I-305] |
| 0.5 to 5 | 0.05 to 0.5 | CC1CCN(c2cccnc2)CC1C(=O)Nc1ccc(=O)n(CC(=O)O)c1 (stereo not drawn) [I-61] |
| 0.5 to 5 | 0.5 to 5 | COc1cc(-c2cccs2)ccc1C(=O)Nc1ccc(=O)n(CC(=O)O)c1 [I-153] |
| > 5 | > 5 | CCCc1ccc(C)c(-c2ccc(=O)n(CC(=O)O)c2)c1 [I-349] |
| > 5 | > 5 | CN(C)C(=O)c1ccc(-c2ccc(=O)n(CC(=O)O)c2)cc1 [I-393] |
| 0.5 to 5 | 0.5 to 5 | O=C(O)Cn1cc(NC(=O)c2cccc(-c3cccnc3)c2)ccc1=O [I-281] |
| > 5 | > 5 | O=C(O)CN1CC(NC(=O)c2cccc(-c3cccnc3)c2)CCC1=O (stereo not drawn) [I-86] |
| > 5 | > 5 | O=C(Nc1ccc(=O)n([C@H](F)C(=O)O)c1)c1cccc(-c2cccnc2)c1 [I-52] |
| > 5 | > 5 | Cc1ccc2cc(C(=O)Nc3ccc(=O)n(CC(=O)O)c3)c(C)nc2c1 [I-191] |
| > 5 | 0.5 to 5 | O=C(O)Cn1cc(NC(=O)c2occc2CN2C(=O)Cc3ccccc32)ccc1=O [I-242] |
| > 5 | > 5 | O=C(O)Cn1cc(NC(=O)CC2Cc3ccc(Cl)cc3C2=O)ccc1=O (stereo not drawn) [I-235] |
| 0.5 to 5 | 0.5 to 5 | O=C(O)Cn1cc(NC(=O)[C@@H]2Cc3ccccc3N(c3cccnc3)C2)ccc1=O [I-11] |
| 0.05 to 0.5 | < 0.05 | CC(C)(C)OC(=O)NCCCCCCc1cc(C(=O)Nc2ccc(=O)n(CC(=O)O)c2)cc(-c2cccnc2)c1 [I-165] |
| > 5 | > 5 | O=C(O)Cn1cc(-c2ccccc2O)ccc1=O [I-406] |
| > 5 | > 5 | O=C(O)CC1NC(=O)c2ccccc21 (stereo not drawn) [I-231] |
| > 5 | > 5 | COc1cccc(-c2cccc(C(=O)Nc3ccc(=O)n(CC(=O)O)c3)c2)c1 [I-292] |
| 0.5 to 5 | 0.05 to 0.5 | CC(C)c1cc(=O)n(CC(=O)O)cc1NC(=O)c1cccc(-c2cccnc2)c1 [I-59] |
| > 5 | > 5 | Cc1ccc2cc(C(=O)Nc3ccc(=O)n(CC(=O)O)c3)cnc2c1 [I-189] |
| > 5 | > 5 | O=C(O)Cn1cc(NC(=O)C2(S(=O)(=O)c3ccc(Cl)cc3)CCCC2)ccc1=O [I-236] |
| > 5 | > 5 | O=C(O)Cn1cc(NC(=O)COc2cc(Cl)cc(Cl)c2)ccc1=O [I-257] |
| > 5 | 0.5 to 5 | Cc1c(Cl)cccc1OCC(=O)Nc1ccc(=O)n(CC(=O)O)c1 [I-309] |
| > 5 | > 5 | CS(=O)(=O)NC(=O)Cn1cc(NC(=O)c2cccc(-c3cccnc3)c2)ccc1=O [I-78] |
